Tests used:
developing embryo = test: Toxicity of drugs for the developing embryo; assay type: in vivo, zebrafish
Procedure: Drugs from BIOMOL® ICCB Known Bioactives Library Cat #2840 were used for drug tests. Drugs were diluted in standard fish water from the 5-mg/ml DMSO stock solutions. The injected embryos were sorted at 8 hours post fertilization (hpf) and the normally developing were selected for drug treatment. Ten to fifteen embryos per well were plated into 24-well microtiter plate and overlayed with 1.5 ml drug solution at 10 hpf. Embryos were incubated in the dark at 28° C. The results were observed every day until 5 days post fertilization (dpf).
To evaluate feasibility of the model for drug discovery, a mini-screening was performed using selected compounds from BIOMOL® ICCB Known Bioactives Library. The embryos injected with EGFP-zK-rasB(V12) construct were treated with various drugs in 24-well microtiter plates. The drugs were administered into the standard fish water starting at 10 hpf. Concentration of drugs was proposed based on data from a preliminary screening for developmental toxicity.

[1] = system: EGFP-positive cells of embryos injected with EGFP-zK-rasB(V12) construct; test: Drug tests on zebrafish embryos injected with EGFP-zK-rasB(V12) construct (neoplastic transformation of EGFP-positive cells); assay type: in vivo; details: for Effects: preliminary screen; for specific effect on the EGFP-positive cells: 1 μg/ml; for effect on the transformed cells: 3 μg/ml
Procedure: 5-10 pg of plasmid DNA were injected into zebrafish embryos at the 1-2-cell stage. The actual concentration of DNA was empirically adjusted to produce 50% embryo survival rate.
A SMZ1500 Stereoscopic Zoom Microscope (Nikon) equipped with the epi-fluorescence attachment and DXM1200F digital camera (Nikon) with original software was used for image analysis.

[2] = system: E-cadherin-mediated cell adhesion system; details: by restoring E-cadherin-mediated cell adhesion system; Nam et al., 2002; cited from earlier work
[3] = 3 μg/ml in fish water from 10 hpf
[4] = 10 μg/ml in fish water from 10 hpf

## COc1cccc(-c2cc(=O)c3ccccc3o2)c1N [PD98059]
Developing embryo; zebrafish, in vivo
  concentration at which toxic effects on development become serious: 10 ng/mL
[1]; 3 ng/ml
  growth of the EGFP-positive cells: strongly impairs growth
[1]; 3 ng/ml, by 72 hpf
  shape and attachment of EGFP-positive cells: smaller, maintain flat shape and remain attached to the embryo
[1]; [3]
  Effects: preserves the epithelial

## CC[C@H](C)C(=O)O[C@H]1C[C@@H](C)C=C2C=C[C@H](C)[C@H](CC[C@@H]3C[C@@H](O)CC(=O)O3)[C@H]21 [Lovastatin]
[1]; 0.003 μg/ml in fish water from 10 hpf
  Effects: Cytotoxic, non-specific effects

## O=C1Nc2ccc(I)cc2/C1=C/c1cc(Br)c(O)c(Br)c1 [GW-5074]
[1]; 1 μg/ml in fish water from 10 hpf
  Effects: Cytotoxic, non-specific effects

## CCCC[C@@H](C)/C=C(C)/C=C(\C)C(=O)NC1=C[C@@](O)(/C=C/C=C/C=C/C(=O)NC2=C(O)CCC2=O)[C@@H]2O[C@@H]2C1=O [Manumycin A]
[1]; [3]
  Effects: NO

## O=c1cc(N2CCOCC2)oc2c(-c3ccccc3)cccc12 [LY294002]
[1]; [3]
  Effects: NO

## CC(C)(C)n1nc(-c2ccc(Cl)cc2)c2c(N)ncnc21 [PP2]
Developing embryo; 1 μg/ml
  toxicity for developing embryo: tolerable
Developing embryo; 3 μg/ml
  toxicity for developing embryo: toxic
[2]
  metastatic spread of cancer: reduced metastatic spread of cancer
[1]
  specific effect on the EGFP-positive cells: considerably reduced
  effect on the transformed cells: maintained flat shape while continued to grow
[1]; [3]
  Effects: Keeps cells flat and attached

## CC[C@H](C)[C@@H](CO[C@@H](Cc1ccccc1)C(=O)N[C@@H](CCS(C)(=O)=O)C(=O)OC(C)C)NC[C@@H](N)CS [L-744,832]
[1]; [4]
  Effects: NO

## Cc1ccc(-c2nn(C(C)(C)C)c3ncnc(N)c23)cc1 [PP1]
Developing embryo; 1 μg/ml
  toxicity for developing embryo: tolerable
Developing embryo; 3 μg/ml
  toxicity for developing embryo: toxic
[1]
  specific effect on the EGFP-positive cells: considerably reduced
  effect on the transformed cells: maintained flat shape while continued to grow
[1]; [3]
  Effects: Keeps cells flat and attached

## Cc1ccc(NC(=O)c2cccc(N(C)C)c2)cc1NC(=O)c1ccc(O)cc1 [ZM336372]
[1]; [4]
  Effects: NO

— patent publication US8513484B2, “Fish cancer model” (Temasek Life Sciences Laboratory Limited, priority 2005, dated 2013)
